row,SMILES,melting point [°C]
1,"Cc1oc(C(C)(C)C)nc1CCCOc1ccc(CC(OC(C)C)C(=O)O)c2ccccc12 (racemic) [Example 55, [rac]-3-{4-[3-(2-tert-Butyl-5-methyl-oxazol-4-yl)-propoxy]-naphthalen-1-yl}-2-isopropoxy-propionic acid]",118 to 119
2,"CCOC(Cc1ccc(OCCCc2nc(C(C)(C)C)oc2C)c2ccccc12)C(=O)O (racemic) [Example 56, [rac]-3-{4-[3-(2-tert-Butyl-5-methyl-oxazol-4-yl)-propoxy]-naphthalen-1-yl}-2-ethoxy-propionic acid]",138 to 140
3,"CCCOC(Cc1ccc(OCCCc2nc(C(C)(C)C)oc2C)c2ccccc12)C(=O)O (racemic) [Example 57, [rac]-3-{4-[3-(2-tert-Butyl-5-methyl-oxazol-4-yl)-propoxy]-naphthalen-1-yl}-2-propoxy-propionic acid]",140 to 141
4,"CCOC(Cc1ccc(OCCCc2nc(CC)oc2C)c2ccccc12)C(=O)O (racemic) [Example 65, [rac]-2-Ethoxy-3-{4-[3-(2-ethyl-5-methyl-oxazol-4-yl)-propoxy]-naphthalen-1-yl}-propionic acid]",113 to 117
5,"CCOC(Cc1ccc(OCCc2nc(CC)oc2C)c2ccsc12)C(=O)O (racemic) [Example 66, [rac]-2-Ethoxy-3-{4-[2-(2-ethyl-5-methyl-oxazol-4-yl)-ethoxy]-benzo[b]thiophen-7-yl}-propionic acid]",84 to 85
6,"CCOC(Cc1ccc(OCCCc2nc(C(CC)CC)oc2C)c2ccsc12)C(=O)O (racemic) [Example 67, [rac]-2-Ethoxy-3-(4-{3-[2-(1-ethyl-propyl)-5-methyl-oxazol-4-yl]-propoxy}-benzo[b]thiophen-7-yl)-propionic acid]",54 to 56
7,"CCOC(Cc1ccc(OCCc2nc(C(CC)CC)oc2C)c2ccsc12)C(=O)O (racemic) [Example 68, [rac]-2-Ethoxy-3-(4-{2-[2-(1-ethyl-propyl)-5-methyl-oxazol-4-yl]-ethoxy}-benzo[b]thiophen-7-yl)-propionic acid]",120 to 121
8,"CCCOC(Cc1ccc(OCCc2nc(C(C)(C)C)oc2C)c2ccccc12)C(=O)O (stereo not drawn) [Example 14, 3-{4-[2-(2-tert-Butyl-5-methyl-oxazol-4-yl)-ethoxy]-naphthalen-1-yl}-2-propoxy-propionic acid]",135 to 137
9,"COC(Cc1cc(C)c(OCCc2nc(C(C)(C)C)oc2C)c(C)c1)C(=O)O (stereo not drawn) [Example 15, 3-{4-[2-(2-tert-Butyl-5-methyl-oxazol-4-yl)-ethoxy]-3,5-dimethyl-phenyl}-2-methoxy-propionic acid]",78 to 80
10,"CCOC(Cc1cc(C)c(OCCc2nc(C(C)(C)C)oc2C)c(C)c1)C(=O)O (stereo not drawn) [Example 16, 3-{4-[2-(2-tert-Butyl-5-methyl-oxazol-4-yl)-ethoxy]-3,5-dimethyl-phenyl}-2-ethoxy-propionic acid]",104 to 106
11,"CCOC(Cc1ccc(OCc2nc(C(C)(C)C)oc2C)c(C)c1)C(=O)O (stereo not drawn) [Example 21, 3-[4-(2-tert-Butyl-5-methyl-oxazol-4-ylmethoxy)-3-methyl-phenyl]-2-ethoxy-propionic acid]",95 to 97
12,"CCOC(Cc1ccc(OCc2nc(C(C)(C)C)oc2C)c2ccccc12)C(=O)O (stereo not drawn) [Example 22, 3-[4-(2-tert-Butyl-5-methyl-oxazol-4-ylmethoxy)-naphthalen-1-yl]-2-ethoxy-propionic acid]",185 to 186
13,"CCCOC(Cc1ccc(OCc2nc(C(C)(C)C)oc2C)c2ccccc12)C(=O)O (stereo not drawn) [Example 24, 3-[4-(2-tert-Butyl-5-methyl-oxazol-4-ylmethoxy)-naphthalen-1-yl]-2-propoxy-propionic acid]",169 to 170
14,"CCCOC(Cc1ccc(OCCc2nc(C3CCCCC3)oc2C)c2ccccc12)C(=O)O (stereo not drawn) [Example 28, 3-{4-[2-(2-Cyclohexyl-5-methyl-oxazol-4-yl)-ethoxy]-naphthalen-1-yl}-2-propoxy-propionic acid]",106 to 107
15,"CCOC(Cc1ccc(OCc2nc(C3CC3)oc2C)c2ccccc12)C(=O)O (stereo not drawn) [Example 38, 3-[4-(2-Cyclopropyl-5-methyl-oxazol-4-ylmethoxy)-naphthalen-1-yl]-2-ethoxy-propionic acid]",166 to 168
16,"Cc1oc(C2CC2)nc1COc1ccc(CC(OC(C)C)C(=O)O)c2ccccc12 (stereo not drawn) [Example 40, 3-[4-(2-Cyclopropyl-5-methyl-oxazol-4-ylmethoxy)-naphthalen-1-yl]-2-isopropoxy-propionic acid]",129 to 130
17,"CCCOC(Cc1ccc(OCc2nc(C3CC3)oc2C)c2ccsc12)C(=O)O (stereo not drawn) [Example 41, 3-[4-(2-Cyclopropyl-5-methyl-oxazol-4-ylmethoxy)-benzo[b]thiophen-7-yl]-2-propoxy-propionic acid]",88 to 89
18,"Cc1oc(C2CC2)nc1COc1ccc(CC(OC(C)C)C(=O)O)c2sccc12 (stereo not drawn) [Example 42, 3-[4-(2-Cyclopropyl-5-methyl-oxazol-4-ylmethoxy)-benzo[b]thiophen-7-yl]-2-isopropoxy-propionic acid]",71 to 72
19,"CCOC(Cc1ccc(OCc2nc(C3CC3)oc2C)c2ccsc12)C(=O)O (stereo not drawn) [Example 43, 3-[4-(2-Cyclopropyl-5-methyl-oxazol-4-ylmethoxy)-benzo[b]thiophen-7-yl]-2-ethoxy-propionic acid]",153 to 154

# Further lines, results first:
row,melting point [°C],SMILES
1,94 to 95,"CCOC(Cc1ccc(OCCCc2nc(C(C)(C)C)oc2CC)c2ccsc12)C(=O)O (racemic) [Example 53, [rac]-3-{4-[3-(2-tert-Butyl-5-ethyl-oxazol-4-yl)-propoxy]-benzo[b]thiophen-7-yl}-2-ethoxy-propionic acid]"
2,125 to 126,"CCOC(Cc1ccc(OCCCc2nc(C(C)(C)C)oc2C)c2ccsc12)C(=O)O (racemic) [Example 54, [rac]-3-{4-[3-(2-tert-Butyl-5-methyl-oxazol-4-yl)-propoxy]-benzo[b]thiophen-7-yl}-2-ethoxy-propionic acid]"
3,110 to 113,"COC(Cc1ccc(OCCCc2nc(C(C)(C)C)oc2C)c2ccsc12)C(=O)O (racemic) [Example 58, [rac]-3-{4-[3-(2-tert-Butyl-5-methyl-oxazol-4-yl)-propoxy]-benzo[b]thiophen-7-yl}-2-methoxy-propionic acid]"
4,125 to 126,"Cc1oc(C(C)C)nc1CCCOc1ccc(CC(OC(C)C)C(=O)O)c2sccc12 (racemic) [Example 62, [rac]-2-Isopropoxy-3-{4-[3-(2-isopropyl-5-methyl-oxazol-4-yl)-propoxy]-benzo[b]thiophen-7-yl}-propionic acid]"
5,155 to 156,"CCO[C@@H](Cc1ccc(OCCc2nc(C(C)(C)C)oc2C)c2ccsc12)C(=O)O [Example 6, (S)-3-{4-[2-(2-tert-Butyl-5-methyl-oxazol-4-yl)-ethoxy]-benzo[b]thiophen-7-yl}-2-ethoxy-propionic acid]"
6,70 to 71,"C=CCCO[C@@H](Cc1ccc(OCCc2nc(C(C)(C)C)oc2C)c2ccsc12)C(=O)O [Example 7, (S)-2-But-3-enyloxy-3-{4-[2-(2-tert-butyl-5-methyl-oxazol-4-yl)-ethoxy]-benzo[b]thiophen-7-yl}-propionic acid]"
7,152 to 153,"CCOC(Cc1ccc(OCCc2nc(C(C)(C)C)oc2C)c2ccsc12)C(=O)O (stereo not drawn) [Example 9, 3-{4-[2-(2-tert-Butyl-5-methyl-oxazol-4-yl)-ethoxy]-benzo[b]thiophen-7-yl}-2-ethoxy-propionic acid]"
8,163 to 165,"COC(Cc1ccc(OCCc2nc(C(C)(C)C)oc2C)c2ccsc12)C(=O)O (stereo not drawn) [Example 10, 3-{4-[2-(2-tert-Butyl-5-methyl-oxazol-4-yl)-ethoxy]-benzo[b]thiophen-7-yl}-2-methoxy-propionic acid]"
9,141 to 143,"COC(Cc1ccc(OCCc2nc(C(C)(C)C)oc2C)c2ccccc12)C(=O)O (stereo not drawn) [Example 13, 3-{4-[2-(2-tert-Butyl-5-methyl-oxazol-4-yl)-ethoxy]-naphthalen-1-yl}-2-methoxy-propionic acid]"
10,179 to 180,"CCOC(Cc1ccc(OCc2nc(C(C)(C)C)oc2C)c2ccsc12)C(=O)O (stereo not drawn) [Example 19, 3-[4-(2-tert-Butyl-5-methyl-oxazol-4-ylmethoxy)-benzo[b]thiophen-7-yl]-2-ethoxy-propionic acid]"
11,166 to 167,"Cc1oc(C(C)(C)C)nc1COc1ccc(CC(OC(C)C)C(=O)O)c2sccc12 (stereo not drawn) [Example 23, 3-[4-(2-tert-Butyl-5-methyl-oxazol-4-ylmethoxy)-benzo[b]thiophen-7-yl]-2-isopropoxy-propionic acid]"
